For assay [1], the target named is Receptor-type tyrosine-protein kinase FLT3 (Homo sapiens, UniProt P36888, ITD).
Description: Inhibition of FLT3 ITD mutant (unknown origin)
The test system of assay [2] is Receptor-type tyrosine-protein kinase FLT3 (Homo sapiens), P36888 [UNDEFINED MUTATION]. The conditions noted are these: dose 500.0 nM.
Description: Inhibition of FLT3 ITD mutant (unknown origin) at 500 nM relative to control
Assay [3] concerns MV4-11. Put plainly: cells. The conditions noted are these: Homo sapiens.
Description: Antiproliferative activity against human MV4-11 cells assessed as reduction in cell viability
Assay [4] relates to MV4-11. The experiment in a line: Potency index, ratio of quizartinib IC50 to test compound IC50 for antiproliferative activity against human MV4-11 cells assessed as reduction in cell viability. Format: functional.

This is an account of results in ChEMBL document CHEMBL4665799, “Synthesis and biological evaluation of diaryl urea derivatives as FLT3 inhibitors” (Bioorg Med Chem Lett, 2020).

Receptor-type tyrosine-protein kinase FLT3 (Homo sapiens), P36888 [UNDEFINED MUTATION], sequence (P36888 whole entry, looked up, change not shown): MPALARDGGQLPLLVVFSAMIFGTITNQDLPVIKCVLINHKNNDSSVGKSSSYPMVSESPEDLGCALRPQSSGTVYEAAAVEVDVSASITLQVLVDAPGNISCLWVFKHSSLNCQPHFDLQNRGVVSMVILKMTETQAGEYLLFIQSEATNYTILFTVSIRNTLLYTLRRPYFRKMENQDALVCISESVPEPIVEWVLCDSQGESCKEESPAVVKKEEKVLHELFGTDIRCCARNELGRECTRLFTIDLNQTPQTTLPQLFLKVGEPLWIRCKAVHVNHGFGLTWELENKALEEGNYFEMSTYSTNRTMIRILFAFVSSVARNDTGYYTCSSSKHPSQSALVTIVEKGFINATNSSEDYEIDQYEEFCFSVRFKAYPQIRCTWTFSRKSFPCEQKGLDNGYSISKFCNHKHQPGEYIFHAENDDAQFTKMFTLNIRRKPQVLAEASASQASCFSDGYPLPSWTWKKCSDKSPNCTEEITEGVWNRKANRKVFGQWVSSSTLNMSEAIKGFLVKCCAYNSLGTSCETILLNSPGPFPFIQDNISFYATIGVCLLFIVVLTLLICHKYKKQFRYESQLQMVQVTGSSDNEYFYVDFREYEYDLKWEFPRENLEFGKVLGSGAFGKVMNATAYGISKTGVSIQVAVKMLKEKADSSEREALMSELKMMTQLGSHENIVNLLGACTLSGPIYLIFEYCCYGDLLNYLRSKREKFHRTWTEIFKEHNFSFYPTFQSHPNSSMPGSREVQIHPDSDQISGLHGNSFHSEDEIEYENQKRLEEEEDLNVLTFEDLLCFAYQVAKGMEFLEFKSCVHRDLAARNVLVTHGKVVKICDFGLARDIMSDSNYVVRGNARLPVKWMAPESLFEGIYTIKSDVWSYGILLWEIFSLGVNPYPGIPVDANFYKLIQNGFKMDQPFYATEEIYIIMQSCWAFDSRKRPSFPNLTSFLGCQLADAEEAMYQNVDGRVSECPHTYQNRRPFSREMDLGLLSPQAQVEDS
Receptor-type tyrosine-protein kinase FLT3, sequence (P36888 whole entry, looked up, change not shown): as above

As to `COc1ccc2c(c1)sc1nc(-c3ccc(NC(=O)Nc4cc(C(C)(C)C)no4)cc3)cn12`, the 50% inhibitory concentration (IC50) (usually the concentration that inhibits the measured activity by half) was determined as 20.5 nM in assay [1] and 1.97 nM in the assay with MV4-11 [3]. Also, the inhibition (in general, the relative decrease from the control value, in per cent) in assay [2] worked out at 97.2%. On the same counts, the results for `Cc1cc(NC(=O)Nc2ccc3c(c2)sc2nc(-c4ccc(OCCN5CCOCC5)cc4)cn23)no1` are 82.6 nM, 39.9 nM and 82.5%. As for `CC(C)(C)c1cc(NC(=O)Nc2ccc(-c3cn4c(n3)sc3cc(OCCN5CCOCC5)ccc34)cc2)on1`, the results for the IC50 (in assay [1]; with MV4-11 [3]) were 5.6 nM and 0.176 nM, respectively. The “Ratio IC50” value with MV4-11 [4] was found to be 4.75. In assay [2], the inhibition amounted to 99.6%. On to `Cc1cc(NC(=O)Nc2ccc(-c3cn4c(n3)sc3cc(OCCN5CCOCC5)ccc34)cc2)no1`, for which the inhibition in assay [2] was 79.9%. On the same count and under the same terms, the result for `CC(C)(C)c1cc(NC(=O)Nc2ccc(CC(=O)Nc3ccc(-c4cn5c(n4)sc4cc(OCCN6CCOCC6)ccc45)cc3)cc2)no1` reads 36%; that for `CC(C)(C)c1cc(NC(=O)Nc2ccc(CC(=O)Nc3ccc(-c4cn5c(n4)sc4cc(OCCN6CCOCC6)ccc45)cc3)cc2)on1`, 38.5%. Consider `Cc1cc(NC(=O)Nc2ccc3c(c2)sc2nc(-c4ccc(OCCN5CCOCC5)cc4)cn23)on1`, for which the IC50 in assay [1] was determined as 109 nM; with MV4-11 [3], 88.7 nM. Moreover, the inhibition in assay [2] stood at 76.9%. As to `COc1ccc2nc(NC(=O)Cc3ccc(NC(=O)Nc4cc(C)no4)cc3)sc2c1`, the inhibition in assay [2] stood at 4.5%.

For `Cc1cc(NC(=O)Nc2ccc(CC(=O)Nc3ccc(-c4cn5c(n4)sc4cc(OCCN6CCOCC6)ccc45)cc3)cc2)on1`, the inhibition in assay [2] stood at 45.9%. Regarding `COc1ccc2nc(NC(=O)Cc3ccc(NC(=O)Nc4cc(C(C)(C)C)on4)cc3)sc2c1`, in assay [2], the inhibition turned out to be 2.5%. With `Cc1cc(NC(=O)Nc2ccc(C(=O)Nc3ccc(-c4cn5c(n4)sc4cc(OCCN6CCOCC6)ccc45)cc3)cc2)no1`, in assay [2], the inhibition amounted to 29%. The same measure, in the same setting: the result for `CC(C)(C)c1cc(NC(=O)Nc2ccc(C(=O)Nc3ccc(-c4cn5c(n4)sc4cc(OCCN6CCOCC6)ccc45)cc3)cc2)no1` reads 35%; that for `COc1ccc2c(c1)sc1nc(-c3ccc(NC(=O)Nc4cc(C)no4)cc3)cn12`, 52.6%.

For `Cc1cc(NC(=O)Nc2ccc(-c3cn4c(n3)sc3cc(OCCN5CCOCC5)ccc34)cc2)on1`, the results for the IC50 (in assay [1]; with MV4-11 [3]) were 157 nM and 33.1 nM, respectively. The inhibition in assay [2] is 66.7%. With `Cc1cc(NC(=O)Nc2ccc(C(=O)Nc3ccc(-c4cn5c(n4)sc4cc(OCCN6CCOCC6)ccc45)cc3)cc2)on1`, the inhibition in assay [2] turned out to be 28.1%.

`CC(C)(C)c1cc(NC(=O)Nc2ccc(C(=O)Nc3ccc(-c4cn5c(n4)sc4cc(OCCN6CCOCC6)ccc45)cc3)cc2)on1`: in assay [2], the inhibition worked out at 41.9%. Consider `CC(C)(C)c1cc(NC(=O)Nc2ccc3c(c2)sc2nc(-c4ccc(OCCN5CCOCC5)cc4)cn23)no1`, for which the IC50 came to 8.25 nM in assay [1] and 0.782 nM in the assay on MV4-11 [3]. Also, the inhibition in assay [2] worked out at 98.8%. With `COc1ccc2nc(NC(=O)Cc3ccc(NC(=O)Nc4cc(C)on4)cc3)sc2c1`, the inhibition in assay [2] was -2%.

Turning to `CC(C)(C)c1cc(NC(=O)Nc2ccc3c(c2)sc2nc(-c4ccc(OCCN5CCOCC5)cc4)cn23)on1`, the IC50 was 6.83 nM in assay [1] and 0.614 nM in the assay on MV4-11 [3]. The inhibition in assay [2] stood at 99.3%.

With `Cc1cc(NC(=O)Nc2ccc(CC(=O)Nc3ccc(-c4cn5c(n4)sc4cc(OCCN6CCOCC6)ccc45)cc3)cc2)no1`, in assay [2], the inhibition turned out to be 35.8%. On the same count and under the same terms, the result for `COc1ccc2c(c1)sc1nc(-c3ccc(NC(=O)Nc4cc(C)on4)cc3)cn12` reads 67.3%. Same read-out and setting: next, `COc1ccc2nc(NC(=O)Cc3ccc(NC(=O)Nc4cc(C(C)(C)C)no4)cc3)sc2c1`: 6.4%.
